Molecules are shown by their SMILES.

Data set [1] concerns Sus scrofa. Nature of the data set: Cardiotoxicity in iv dosed Sus scrofa (pig) assessed as effect on maximum rate of rise of left ventricular pressure administered as infusion. In kind it is toxicity, organism-based, Heart left ventricle. Particulars: in vivo.
Data set [2] relates to Sus scrofa. Nature of the data set: Cardiotonic activity in iv dosed Sus scrofa (pig) assessed as change in left ventricular filling pressure administered as infusion. In kind it is functional, Heart left ventricle.
Data set [3] relates to Sus scrofa. Nature of the data set: Cardiotonic activity in iv dosed Sus scrofa (pig) assessed as change in left ventricular systolic pressure administered as infusion. It counts as functional, Heart left ventricle.
Data set [4] deals with Sus scrofa. Nature of the data set: Cardiotoxicity in Sus scrofa (pig) assessed as increase in maximum rate of rise of left ventricular pressure at 2.5 to 25 ug/kg/min administered as 10 min infusion. As to conditions: in vivo, iv. In kind it is toxicity, organism-based, Heart left ventricle.
In data set [5] the test system is Sus scrofa. Nature of the data set: Cardiotonic activity in iv dosed Sus scrofa (pig) assessed as change in heart rate administered as infusion. It counts as functional.
The test system of data set [6] is Sus scrofa. The data set can be described thus: Cardiotoxicity in Sus scrofa (pig) assessed as increase in maximum rate of rise of left ventricular pressure at 0.05 to 0.5 ug/kg/min administered as 10 min infusion. In kind it is toxicity, organism-based, Heart left ventricle. Particulars: in vivo, iv.

On to `COc1ccc(-c2nc3ccc(C4=NNC(=O)CC4C)cc3[nH]2)cc1` (stereo unspecified) [PIMOBENDAN], for which the Activity is 10% in the data set on Sus scrofa [1]; -20% with Sus scrofa [2]; -5% in the data set with Sus scrofa [3]; 85% in the data set on Sus scrofa [4]; 10% in the data set on Sus scrofa [5].
Take `COC(=O)C1=C(C)NC(C)=C(C(=O)OCC(C)C)C1c1ccccc1[N+](=O)[O-]` (stereo unspecified) [NISOLDIPINE]: in the data set with Sus scrofa [6], the Activity turned out to be 45%.

Source of the values: ChEMBL document CHEMBL3046708, “The effect of pyridazine compounds on the cardiovascular system” (Med Chem Res, 2012).
